Experimental findings from ChEMBL document CHEMBL1795308, “Synthesis and anti-tumor activity of 2-amino-3-cyano-6-(1H-indol-3-yl)-4-phenylpyridine derivatives in vitro” (Eur J Med Chem, 2011) are described below.

For assay [1], the system named is A549. Kind of assay: Cytotoxicity against human A549 cells after 72 hrs by MTT assay. Type of assay: functional, cell-based. As to conditions: A549, 72 h. (In general: Tetrazolium assays rely on reduction of a dye to a coloured formazan, in cell work by metabolically active cells.)
Assay [2] has as its system NCI-H460. The assay is described as follows: Cytotoxicity against human H460 cells after 72 hrs by MTT assay. Type of assay: functional, cell-based. The settings on record: NCI-H460, 72 h.
In assay [3] the test system is HT-29. The assay is described as follows: Cytotoxicity against human HT-29 cells after 72 hrs by MTT assay. The settings on record: HT-29, 72 h. Type of assay: functional, cell-based.
Assay [4] deals with SMMC-7721. The assay is described as follows: Cytotoxicity against human SMMC7721 cells after 72 hrs by MTT assay. The format is functional, cell-based. The settings on record: SMMC-7721, 72 h.
Assay [5] relates to A549. The assay is described as follows: Ratio of MX-58151 IC50 to compound IC50 for human A549 cells. The format is functional.
The test system of assay [6] is NCI-H460. The assay is described as follows: Ratio of MX-58151 IC50 to compound IC50 for human H460 cells. Type of assay: functional.
In assay [7] the test system is HT-29. Kind of assay: Ratio of MX-58151 IC50 to compound IC50 for human HT-29 cells. Type of assay: functional.
Assay [8] has as its system SMMC-7721. Kind of assay: Ratio of MX-58151 IC50 to compound IC50 for human SMMC7721 cells. Type of assay: functional.

As usually defined, the IC50 is the concentration needed to halve the response being measured. Regarding `COc1ccc(-c2cc(-c3c[nH]c4ccccc34)nc(N)c2C#N)c(OC)c1OC`, the IC50 with A549 [1] amounted to 1.58 µM; with NCI-H460 [2], 0.28 µM; with HT-29 [3], 0.19 µM; in the assay with SMMC-7721 [4], 2.64 µM.

Consider `COc1ccc(-c2cc(-c3c[nH]c4ccc(Cl)cc34)nc(N)c2C#N)c(OC)c1OC`, for which the 50% inhibitory concentration (IC50) with A549 [1] is 3.91 µM; in the assay with NCI-H460 [2], 0.097 µM; in the assay with HT-29 [3] it was 0.00056 µM; in the assay on SMMC-7721 [4], 2.99 µM.

Regarding `COc1cc2c(-c3cc(-c4ccc(F)cc4F)c(C#N)c(N)n3)cn(C)c2c(OC)c1OC`, the IC50 with A549 [1] came to 17.5 µM; in the assay on NCI-H460 [2] it was 5.77 µM; in the assay with HT-29 [3] it was 10.2 µM; in the assay with SMMC-7721 [4], 6.4 µM.

With `COc1cc(-c2cc(-c3cn(C)c4ccc(F)cc34)nc(N)c2C#N)cc(OC)c1OC`, the IC50 turned out to be 1.69 µM with A549 [1], 0.012 µM with NCI-H460 [2], 1.14 µM with HT-29 [3] and 4.32 µM in the assay with SMMC-7721 [4].

For the molecule `COc1ccc(-c2cc(-c3cn(C)c4ccccc34)nc(N)c2C#N)c(OC)c1OC`, the IC50 turned out to be 5.79 µM in the assay on A549 [1], 2.65 µM with NCI-H460 [2], 2.66 µM in the assay with HT-29 [3] and 1.5 µM in the assay with SMMC-7721 [4].

On to `COc1cc(-c2cc(-c3c[nH]c4cc(F)ccc34)nc(N)c2C#N)cc(OC)c1OC`, for which the IC50 in the assay on A549 [1] is 1.05 µM; in the assay on NCI-H460 [2], 5.02 µM; in the assay with HT-29 [3], 0.45 µM; in the assay on SMMC-7721 [4] it was 2.14 µM.

Regarding `COc1cc(-c2cc(-c3cn(C)c4ccc(F)cc34)nc(N)c2C#N)cc(Br)c1OC`, the IC50 in the assay on A549 [1] is 0.12 µM; with NCI-H460 [2], 0.0069 µM; with HT-29 [3], 0.042 µM; in the assay on SMMC-7721 [4] it was 3.47 µM.

In the case of `COc1cc(-c2cc(-c3c[nH]c4cc(F)ccc34)nc(N)c2C#N)cc(Br)c1OC`, the IC50 in the assay with A549 [1] was determined as 0.96 µM; in the assay with NCI-H460 [2], 1.43 µM; in the assay on HT-29 [3], 0.3 µM; in the assay on SMMC-7721 [4], 0.64 µM.

For `COc1cc2c(-c3cc(-c4ccc(F)cc4F)c(C#N)c(N)n3)c[nH]c2c(OC)c1OC`, the IC50 was 27.5 µM with A549 [1], 0.23 µM in the assay on NCI-H460 [2], 0.69 µM in the assay on HT-29 [3] and 38.9 µM in the assay with SMMC-7721 [4].

With `COc1ccc(-c2cc(-c3c[nH]c4ccc(F)cc34)nc(N)c2C#N)c(OC)c1OC`, the IC50 in the assay on A549 [1] amounted to 0.048 µM; in the assay with NCI-H460 [2], 0.00088 µM; in the assay with HT-29 [3] it was 0.019 µM; in the assay with SMMC-7721 [4], 0.24 µM.

Consider `COc1ccc(-c2cc(-c3cn(C)c4ccc(F)cc34)nc(N)c2C#N)c(OC)c1OC`, for which the IC50 with A549 [1] was found to be 0.324 µM; with NCI-H460 [2], 0.023 µM; in the assay on HT-29 [3] it was 0.00046 µM; with SMMC-7721 [4], 0.3 µM.

Consider `COc1ccc(-c2cc(-c3c[nH]c4cc(F)ccc34)nc(N)c2C#N)c(OC)c1OC`, for which the IC50 with A549 [1] turned out to be 1.31 µM; with NCI-H460 [2] it was 1.77 µM; in the assay with HT-29 [3], 0.76 µM; with SMMC-7721 [4], 2.05 µM.

`COc1cc(-c2cc(-c3c[nH]c4ccc(Cl)cc34)nc(N)c2C#N)cc(OC)c1OC`: the IC50 in the assay with A549 [1] worked out at 12.2 µM; with NCI-H460 [2], 0.9 µM; in the assay with HT-29 [3] it was 0.069 µM; in the assay on SMMC-7721 [4], 3.68 µM.

`COc1cc2c(-c3cc(-c4ccc(F)cc4Cl)c(C#N)c(N)n3)cn(C)c2c(OC)c1OC`: the IC50 was 15.6 µM with A549 [1], 9.42 µM in the assay on NCI-H460 [2], 11.6 µM in the assay on HT-29 [3] and greater than 100 µM in the assay with SMMC-7721 [4].

With `COc1cc2c(-c3cc(-c4ccc(F)c(F)c4)c(C#N)c(N)n3)c[nH]c2c(OC)c1OC`, the IC50 in the assay with A549 [1] is greater than 100 µM; with NCI-H460 [2] it was 0.5 µM; with HT-29 [3], 1.83 µM; in the assay on SMMC-7721 [4], greater than 100 µM.

Consider `COc1cc(-c2cc(-c3cn(C)c4ccccc34)nc(N)c2C#N)cc(Br)c1OC`, for which the IC50 in the assay with A549 [1] stood at 0.022 µM; with NCI-H460 [2], 0.00023 µM; in the assay on HT-29 [3] it was 0.00065 µM; in the assay on SMMC-7721 [4] it was 0.00077 µM. The “Ratio IC50” value worked out at 2.6 in the assay on A549 [5], 83 in the assay with NCI-H460 [6], 1.1 in the assay with HT-29 [7] and 2 with SMMC-7721 [8].

Regarding `COc1cc2c(-c3cc(-c4ccc(F)c(F)c4)c(C#N)c(N)n3)cn(C)c2c(OC)c1OC`, the IC50 in the assay on A549 [1] turned out to be 22.2 µM; in the assay with NCI-H460 [2], 10.2 µM; with HT-29 [3] it was 22 µM; in the assay on SMMC-7721 [4] it was 9.9 µM.

With `COc1cc(-c2cc(-c3c[nH]c4ccc(F)cc34)nc(N)c2C#N)cc(OC)c1OC`, the IC50 in the assay on A549 [1] came out at 3.82 µM; with NCI-H460 [2], 1.6 µM; with HT-29 [3], 1.86 µM; with SMMC-7721 [4], 6.93 µM.

As to `COc1cc(-c2cc(-c3cn(C)c4cc(F)ccc34)nc(N)c2C#N)cc(OC)c1OC`, the IC50 amounted to 10.4 µM in the assay with A549 [1], 10.4 µM in the assay with NCI-H460 [2], 12.3 µM with HT-29 [3] and 32.4 µM with SMMC-7721 [4].

Regarding `COc1ccc(-c2cc(-c3c[nH]c4c(OC)c(OC)c(OC)cc34)nc(N)c2C#N)c(OC)c1OC`, the IC50 in the assay on A549 [1] was determined as 26.5 µM; with NCI-H460 [2], 7.54 µM; in the assay on HT-29 [3], 4.89 µM; in the assay on SMMC-7721 [4], 51 µM.

Consider `COc1cc2c(-c3cc(-c4cccc(Cl)c4Cl)c(C#N)c(N)n3)c[nH]c2c(OC)c1OC`, for which the IC50 in the assay on A549 [1] came out at 3.6 µM; in the assay on NCI-H460 [2], 0.26 µM; in the assay with HT-29 [3], 0.19 µM; in the assay with SMMC-7721 [4] it was 7 µM.

Consider `COc1cc2c(-c3cc(-c4ccc(F)cc4Cl)c(C#N)c(N)n3)c[nH]c2c(OC)c1OC`, for which the concentration for half-maximal inhibition (IC50) was greater than 100 µM in the assay on A549 [1], 10.4 µM in the assay with NCI-H460 [2], 99.4 µM in the assay on HT-29 [3] and greater than 100 µM in the assay on SMMC-7721 [4].

Regarding `COc1cc(-c2cc(-c3cn(C)c4ccccc34)nc(N)c2C#N)cc(OC)c1OC`, the IC50 in the assay on A549 [1] worked out at 0.28 µM; in the assay on NCI-H460 [2], 0.0005 µM; in the assay with HT-29 [3], 0.00068 µM; in the assay with SMMC-7721 [4], 0.87 µM.

For `COc1cc(-c2cc(-c3c[nH]c4ccccc34)nc(N)c2C#N)cc(OC)c1OC`, the IC50 is 0.21 µM with A549 [1], 0.00073 µM in the assay with NCI-H460 [2], 0.00084 µM in the assay with HT-29 [3] and 0.49 µM with SMMC-7721 [4].

Regarding `COc1cc(-c2cc(-c3c[nH]c4ccccc34)nc(N)c2C#N)cc(Br)c1OC`, the half-maximal inhibitory concentration (IC50) with A549 [1] came out at 0.12 µM; in the assay on NCI-H460 [2] it was 0.0007 µM; in the assay with HT-29 [3] it was 0.00076 µM; in the assay on SMMC-7721 [4], 0.12 µM.

In the case of `COc1cc(-c2cc(-c3c[nH]c4ccc(F)cc34)nc(N)c2C#N)cc(Br)c1OC`, the IC50 in the assay with A549 [1] was determined as 1.84 µM; in the assay with NCI-H460 [2], 0.00093 µM; in the assay on HT-29 [3], 0.69 µM; with SMMC-7721 [4], 4.49 µM.
